Measurements as given in article PMC9719892, “Control of parallelized bioreactors II: probabilistic quantification of carboxylic acid reductase activity for bioprocess optimization” (Bioprocess and Biosystems Engineering, 2022).

Target: T1, NoCAR (Nocardia otitidiscaviarum, UniProt A0A378YSF8)
T1 construct: gene lgrD_6; pETDuet, T7 promoter, co-expressed with E. coli pyrophosphatase (EcPPase, no chain) in E. coli K12 MG1655 RARE; whole cells; CAR class approx. 130 kDa
T1 sequence (A0A378YSF8 1-1156): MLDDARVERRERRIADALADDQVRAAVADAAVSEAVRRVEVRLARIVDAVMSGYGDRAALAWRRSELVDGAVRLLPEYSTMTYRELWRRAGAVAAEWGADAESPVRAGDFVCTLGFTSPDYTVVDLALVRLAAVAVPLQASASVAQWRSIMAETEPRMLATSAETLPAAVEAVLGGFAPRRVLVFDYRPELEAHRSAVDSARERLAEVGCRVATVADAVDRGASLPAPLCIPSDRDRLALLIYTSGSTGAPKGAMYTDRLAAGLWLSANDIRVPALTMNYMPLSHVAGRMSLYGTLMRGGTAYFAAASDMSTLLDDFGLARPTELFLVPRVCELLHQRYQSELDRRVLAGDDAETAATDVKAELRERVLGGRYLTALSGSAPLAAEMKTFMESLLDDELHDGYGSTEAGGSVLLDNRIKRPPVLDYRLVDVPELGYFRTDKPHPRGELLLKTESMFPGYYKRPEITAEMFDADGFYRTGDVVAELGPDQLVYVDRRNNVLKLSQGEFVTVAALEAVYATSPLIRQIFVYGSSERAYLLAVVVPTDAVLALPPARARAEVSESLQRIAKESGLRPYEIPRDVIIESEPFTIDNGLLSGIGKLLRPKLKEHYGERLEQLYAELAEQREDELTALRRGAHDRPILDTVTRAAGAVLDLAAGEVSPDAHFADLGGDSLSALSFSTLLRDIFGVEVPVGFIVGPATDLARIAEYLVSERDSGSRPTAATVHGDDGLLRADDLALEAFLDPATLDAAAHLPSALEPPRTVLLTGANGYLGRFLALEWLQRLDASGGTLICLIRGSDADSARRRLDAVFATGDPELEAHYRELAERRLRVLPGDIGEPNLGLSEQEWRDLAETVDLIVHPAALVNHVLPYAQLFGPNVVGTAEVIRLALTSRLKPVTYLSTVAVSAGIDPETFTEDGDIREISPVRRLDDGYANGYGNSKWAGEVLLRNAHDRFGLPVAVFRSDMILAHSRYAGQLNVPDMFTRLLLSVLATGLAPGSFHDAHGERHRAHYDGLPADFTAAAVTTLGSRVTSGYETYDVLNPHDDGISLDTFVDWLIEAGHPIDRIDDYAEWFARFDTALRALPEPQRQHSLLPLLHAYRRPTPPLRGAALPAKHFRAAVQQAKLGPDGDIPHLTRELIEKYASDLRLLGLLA
Assay: whole-cell biotransformation, ABAO assay of 3-hydroxybenzaldehyde at […] nm
Format: cell-based
Details: 2.5 mM substrate in PBS / minimal medium with glucose, growing E. coli cells, 35 °C; no added cofactor

Structure (SMILES): O=C(O)c1cccc(O)c1 [3-hydroxybenzoic acid]
- whole-cell biotransformation, ABAO assay of 3-hydroxybenzaldehyde at 360 nm: The biotransformation consists of the conversion of 3-hydroxybenzoic acid to 3-hydroxybenzaldehyde
